Data: PubChem BioAssay (NCI)
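Where inhibition never reached the appropriate level, the endpoint shown equals the highest concentration tested. Otherwise, values were interpolated linearly from a five-concentration, 48-hour dose response in 96-well plates. TGI marks complete inhibition of growth.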

Legend:
Test in all cases: NCI anticancer screen, dose series, 48 h
786-0 renal = test system: 786-0 renal
A498 renal = test system: A498 renal
A549 NSCLC = test system: A549 NSCLC
ACHN renal = test system: ACHN renal
BT-549 breast = test system: BT-549 breast
CAKI-1 renal = test system: CAKI-1 renal
CCRF-CEM leukemia = test system: CCRF-CEM leukemia
COLO 205 colon = test system: COLO 205 colon
DU-145 prostate = test system: DU-145 prostate
HCC-2998 colon = test system: HCC-2998 colon
HCT-116 colon = test system: HCT-116 colon
HCT-15 colon = test system: HCT-15 colon
HL-60(TB) leukemia = test system: HL-60(TB) leukemia
HOP-62 NSCLC = test system: HOP-62 NSCLC
HOP-92 NSCLC = test system: HOP-92 NSCLC
HS 578T breast = test system: HS 578T breast
HT29 colon = test system: HT29 colon
IGROV1 ovarian = test system: IGROV1 ovarian
K-562 leukemia = test system: K-562 leukemia
KM12 colon = test system: KM12 colon
LOX IMVI melanoma = test system: LOX IMVI melanoma
M14 melanoma = test system: M14 melanoma
MCF7 breast = test system: MCF7 breast
MDA-MB-231 breast = test system: MDA-MB-231 breast
MDA-MB-435 = test system: MDA-MB-435
MOLT-4 leukemia = test system: MOLT-4 leukemia
NCI-H226 lung = test system: NCI-H226 lung
NCI-H23 lung = test system: NCI-H23 lung
NCI-H460 lung = test system: NCI-H460 lung
NCI/ADR-RES ovarian = test system: NCI/ADR-RES ovarian
OVCAR-3 ovarian = test system: OVCAR-3 ovarian
OVCAR-4 ovarian = test system: OVCAR-4 ovarian
OVCAR-5 ovarian = test system: OVCAR-5 ovarian
OVCAR-8 ovarian = test system: OVCAR-8 ovarian
PC-3 prostate = test system: PC-3 prostate
RPMI-8226 leukemia = test system: RPMI-8226 leukemia
RXF 393 renal = test system: RXF 393 renal
SF-268 CNS = test system: SF-268 CNS
SF-539 CNS = test system: SF-539 CNS
SK-MEL-2 melanoma = test system: SK-MEL-2 melanoma
SK-MEL-28 melanoma = test system: SK-MEL-28 melanoma
SK-MEL-5 melanoma = test system: SK-MEL-5 melanoma
SK-OV-3 ovarian = test system: SK-OV-3 ovarian
SN12C renal = test system: SN12C renal
SNB-19 CNS = test system: SNB-19 CNS
SNB-75 CNS = test system: SNB-75 CNS
SR leukemia = test system: SR leukemia
SW-620 colon = test system: SW-620 colon
T-47D breast = test system: T-47D breast
U251 CNS = test system: U251 CNS
UACC-257 melanoma = test system: UACC-257 melanoma
UACC-62 melanoma = test system: UACC-62 melanoma
EKVX NSCLC = test system: EKVX NSCLC
MDA-N = test system: MDA-N
TK-10 renal = test system: TK-10 renal
NCI-H522 lung = test system: NCI-H522 lung
SF-295 CNS = test system: SF-295 CNS
UO-31 renal = test system: UO-31 renal

C=CCc1cccc2cc(C(=O)Nc3ccccn3)c(=N)oc12
TGI (786-0 renal): > 100 µM | TGI (A498 renal): > 100 µM | TGI (A549 NSCLC): > 100 µM | TGI (ACHN renal): > 100 µM | TGI (BT-549 breast): > 100 µM | TGI (CAKI-1 renal): > 100 µM | TGI (CCRF-CEM leukemia): > 100 µM | TGI (COLO 205 colon): > 100 µM | TGI (DU-145 prostate): > 100 µM | TGI (HCC-2998 colon): > 100 µM | TGI (HCT-116 colon): > 100 µM | TGI (HCT-15 colon): > 100 µM | TGI (HL-60(TB) leukemia): > 100 µM | TGI (HOP-62 NSCLC): > 100 µM | TGI (HOP-92 NSCLC): > 100 µM | TGI (HS 578T breast): > 100 µM | TGI (HT29 colon): > 100 µM | TGI (IGROV1 ovarian): > 100 µM | TGI (K-562 leukemia): > 100 µM | TGI (KM12 colon): > 100 µM | TGI (LOX IMVI melanoma): > 100 µM | TGI (M14 melanoma): > 100 µM | TGI (MCF7 breast): > 100 µM | TGI (MDA-MB-231 breast): > 100 µM | TGI (MDA-MB-435): > 100 µM | TGI (MOLT-4 leukemia): > 100 µM | TGI (NCI-H226 lung): > 100 µM | TGI (NCI-H23 lung): > 100 µM | TGI (NCI-H460 lung): > 100 µM | TGI (NCI/ADR-RES ovarian): > 100 µM | TGI (OVCAR-3 ovarian): > 100 µM | TGI (OVCAR-4 ovarian): > 100 µM | TGI (OVCAR-5 ovarian): > 100 µM | TGI (OVCAR-8 ovarian): > 100 µM | TGI (PC-3 prostate): > 100 µM | TGI (RPMI-8226 leukemia): > 100 µM | TGI (RXF 393 renal): > 100 µM | TGI (SF-268 CNS): > 100 µM | TGI (SF-539 CNS): > 100 µM | TGI (SK-MEL-2 melanoma): > 100 µM | TGI (SK-MEL-28 melanoma): > 100 µM | TGI (SK-MEL-5 melanoma): > 100 µM | TGI (SK-OV-3 ovarian): > 100 µM | TGI (SN12C renal): > 100 µM | TGI (SNB-19 CNS): > 100 µM | TGI (SNB-75 CNS): > 100 µM | TGI (SR leukemia): > 100 µM | TGI (SW-620 colon): > 100 µM | TGI (T-47D breast): > 100 µM | TGI (U251 CNS): > 100 µM | TGI (UACC-257 melanoma): > 100 µM | TGI (UACC-62 melanoma): > 100 µM

COc1ccc(/C=C2\CCC(C)C3=C2N=c2s/c(=C/c4cccc(Br)c4)c(=O)n2C3c2ccc(OC)c(OC)c2)cc1OC (stereo unspecified)
TGI (786-0 renal): > 100 µM | TGI (A498 renal): > 100 µM | TGI (A549 NSCLC): > 100 µM | TGI (ACHN renal): > 100 µM | TGI (CAKI-1 renal): > 100 µM | TGI (CCRF-CEM leukemia): > 100 µM | TGI (DU-145 prostate): > 100 µM | TGI (EKVX NSCLC): > 100 µM | TGI (HCT-116 colon): > 100 µM | TGI (HCT-15 colon): > 100 µM | TGI (HL-60(TB) leukemia): > 100 µM | TGI (HOP-62 NSCLC): > 100 µM | TGI (HOP-92 NSCLC): > 100 µM | TGI (HS 578T breast): > 100 µM | TGI (HT29 colon): > 100 µM | TGI (IGROV1 ovarian): > 100 µM | TGI (K-562 leukemia): > 100 µM | TGI (KM12 colon): > 100 µM | TGI (LOX IMVI melanoma): > 100 µM | TGI (M14 melanoma): > 100 µM | TGI (MCF7 breast): > 100 µM | TGI (MDA-MB-231 breast): > 100 µM | TGI (MDA-MB-435): > 100 µM | TGI (MDA-N): > 100 µM | TGI (MOLT-4 leukemia): > 100 µM | TGI (OVCAR-4 ovarian): > 100 µM | TGI (OVCAR-5 ovarian): > 100 µM | TGI (OVCAR-8 ovarian): > 100 µM | TGI (PC-3 prostate): > 100 µM | TGI (RPMI-8226 leukemia): > 100 µM | TGI (RXF 393 renal): > 100 µM | TGI (SF-268 CNS): > 100 µM | TGI (SK-MEL-2 melanoma): > 100 µM | TGI (SK-MEL-28 melanoma): > 100 µM | TGI (SK-MEL-5 melanoma): > 100 µM | TGI (SK-OV-3 ovarian): > 100 µM | TGI (SN12C renal): > 100 µM | TGI (SNB-19 CNS): > 100 µM | TGI (SR leukemia): > 100 µM | TGI (SW-620 colon): > 100 µM | TGI (TK-10 renal): > 100 µM | TGI (U251 CNS): > 100 µM | TGI (UACC-257 melanoma): > 100 µM | TGI (UACC-62 melanoma): > 100 µM

CC1(C)CCC[C@]2(C)[C@H]3[C@H](C#N)c4cc(O)c(O)cc4O[C@@]3(C)CC[C@@H]12
TGI (786-0 renal): > 10 µM | TGI (A498 renal): > 10 µM | TGI (ACHN renal): > 10 µM | TGI (CAKI-1 renal): > 10 µM | TGI (CCRF-CEM leukemia): > 10 µM | TGI (COLO 205 colon): > 10 µM | TGI (DU-145 prostate): > 10 µM | TGI (EKVX NSCLC): > 10 µM | TGI (HCC-2998 colon): > 10 µM | TGI (HCT-15 colon): > 10 µM | TGI (HL-60(TB) leukemia): > 10 µM | TGI (HOP-62 NSCLC): > 10 µM | TGI (HOP-92 NSCLC): > 10 µM | TGI (HS 578T breast): > 10 µM | TGI (IGROV1 ovarian): > 10 µM | TGI (K-562 leukemia): > 10 µM | TGI (KM12 colon): > 10 µM | TGI (LOX IMVI melanoma): > 10 µM | TGI (M14 melanoma): > 10 µM | TGI (MCF7 breast): > 10 µM | TGI (MDA-MB-231 breast): > 10 µM | TGI (MDA-N): > 10 µM | TGI (MOLT-4 leukemia): > 10 µM | TGI (NCI-H226 lung): > 10 µM | TGI (NCI-H23 lung): > 10 µM | TGI (NCI-H460 lung): > 10 µM | TGI (NCI-H522 lung): > 10 µM | TGI (NCI/ADR-RES ovarian): > 10 µM | TGI (OVCAR-3 ovarian): > 10 µM | TGI (OVCAR-4 ovarian): > 10 µM | TGI (OVCAR-5 ovarian): > 10 µM | TGI (OVCAR-8 ovarian): > 10 µM | TGI (PC-3 prostate): > 10 µM | TGI (RPMI-8226 leukemia): > 10 µM | TGI (RXF 393 renal): > 10 µM | TGI (SF-268 CNS): > 10 µM | TGI (SF-295 CNS): > 10 µM | TGI (SF-539 CNS): > 10 µM | TGI (SK-MEL-2 melanoma): > 10 µM | TGI (SK-MEL-28 melanoma): > 10 µM | TGI (SK-MEL-5 melanoma): > 10 µM | TGI (SK-OV-3 ovarian): > 10 µM | TGI (SN12C renal): > 10 µM | TGI (SNB-19 CNS): > 10 µM | TGI (SR leukemia): > 10 µM | TGI (SW-620 colon): > 10 µM | TGI (TK-10 renal): > 10 µM | TGI (U251 CNS): > 10 µM | TGI (UACC-257 melanoma): > 10 µM | TGI (UO-31 renal): > 10 µM
